This is an account of results in BindingDB's records for doi:10.7270/Q21G0K51 (University of Carthage, 2017).

By IC50 is commonly meant the concentration needed to halve the response being measured. High values mean lower potency, low ones higher potency.

In one assay the target is Acetylcholinesterase (Electrophorus electricus, UniProt O42275). Nature of the assay: Cholinesterase Activity Assay. Here is the method:
(§1) The eight synthesized dialkyl-3-cyanopropylphosphates (3a-h) were dissolved in0.01 M dimethyl sulphoxide and then diluted in demineralized water to 1 mM and 0.1 mM.

Assay [1] concerns the target Carboxylic ester hydrolase (Equus caballus, UniProt Q9N1N9). Put plainly: Cholinesterase Activity Assay. Here is the method:
as §1

Carboxylic ester hydrolase, sequence (Q9N1N9 whole entry): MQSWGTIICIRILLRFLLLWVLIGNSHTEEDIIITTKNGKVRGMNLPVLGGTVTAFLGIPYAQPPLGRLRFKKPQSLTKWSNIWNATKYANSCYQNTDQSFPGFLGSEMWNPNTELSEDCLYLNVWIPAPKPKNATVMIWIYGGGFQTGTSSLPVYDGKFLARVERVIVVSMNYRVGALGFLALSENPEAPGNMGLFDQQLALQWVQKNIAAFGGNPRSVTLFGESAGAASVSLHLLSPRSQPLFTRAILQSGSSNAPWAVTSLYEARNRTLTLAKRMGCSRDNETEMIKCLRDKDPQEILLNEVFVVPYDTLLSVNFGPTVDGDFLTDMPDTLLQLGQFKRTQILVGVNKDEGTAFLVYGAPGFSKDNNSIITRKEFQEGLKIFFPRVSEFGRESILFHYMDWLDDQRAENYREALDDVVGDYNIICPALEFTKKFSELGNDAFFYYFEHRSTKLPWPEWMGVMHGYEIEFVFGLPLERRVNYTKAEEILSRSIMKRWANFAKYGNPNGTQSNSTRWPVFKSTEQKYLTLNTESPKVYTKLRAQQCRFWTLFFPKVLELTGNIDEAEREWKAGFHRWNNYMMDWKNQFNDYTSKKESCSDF
Acetylcholinesterase, sequence (O42275 whole entry): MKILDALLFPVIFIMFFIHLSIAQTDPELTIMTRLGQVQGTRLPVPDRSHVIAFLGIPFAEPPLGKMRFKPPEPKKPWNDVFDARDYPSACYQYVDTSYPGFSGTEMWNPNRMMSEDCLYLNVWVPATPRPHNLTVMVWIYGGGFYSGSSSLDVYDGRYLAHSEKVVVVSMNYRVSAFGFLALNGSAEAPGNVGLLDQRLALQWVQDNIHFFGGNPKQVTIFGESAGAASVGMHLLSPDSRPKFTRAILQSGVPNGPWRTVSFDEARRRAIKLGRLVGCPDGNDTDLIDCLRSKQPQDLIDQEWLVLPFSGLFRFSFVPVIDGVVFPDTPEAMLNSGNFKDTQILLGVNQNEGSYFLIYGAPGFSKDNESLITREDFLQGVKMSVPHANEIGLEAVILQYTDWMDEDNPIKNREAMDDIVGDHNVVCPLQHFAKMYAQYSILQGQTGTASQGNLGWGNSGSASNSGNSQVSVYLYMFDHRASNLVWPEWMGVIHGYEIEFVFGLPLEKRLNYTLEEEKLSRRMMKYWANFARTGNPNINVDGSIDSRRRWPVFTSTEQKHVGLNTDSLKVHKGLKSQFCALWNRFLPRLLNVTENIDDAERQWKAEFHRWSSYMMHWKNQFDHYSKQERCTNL

For `CCOP(=O)(OCC)OC(CCC#N)c1ccc(OC)cc1` (stereo unspecified) [Diethyl-3-cyano-1-(4-methoxyphenyl)propylphosphate (3e)], the values for the IC50 (at Acetylcholinesterase; in assay [1]) were 53.7 µM and 20.7 µM, respectively.

Take `CCOP(=O)(OCC)OC(CCC#N)c1ccc(C)cc1` (stereo unspecified) [Diethyl-3-cyano-1-p-tolylpropylphosphate (3c)]: the IC50 against Acetylcholinesterase was 9.61 µM; in assay [1], 5.96 µM.

As to `CCOP(=O)(OCC)OC(CCC#N)c1ccccc1` (stereo unspecified) [Diethyl-3-cyano-1-phenylpropylphosphate (3a)], the IC50 on Acetylcholinesterase is 33.6 µM; in assay [1], 18.1 µM.

Take `CCOP(=O)(OCC)OC(c1ccccc1)C(C)CC#N` (stereo unspecified) [Diethyl-3-cyano-2-methyl-1-phenylpropylphosphate (3g)]: the IC50 against Acetylcholinesterase came to 35.8 µM; in assay [1], 17.8 µM.

As to `COc1ccc(C(CCC#N)OP(=O)(OC)OC)cc1` (stereo unspecified) [Dimethyl-3-cyano-1-(4-methoxyphenyl)propylphosphate (3f)], the half-inhibitory concentration (IC50) is 36.8 µM against Acetylcholinesterase and 23.3 µM in assay [1].

`COP(=O)(OC)OC(CCC#N)c1ccc(C)cc1` (stereo unspecified) [Dimethyl-3-cyano-1-p-tolylpropylphosphate (3d)]: the IC50 against Acetylcholinesterase was 17.3 µM; in assay [1], 16 µM.

Turning to `COP(=O)(OC)OC(CCC#N)c1ccccc1` (stereo unspecified) [Dimethyl-3-cyano-1-phenylpropylphosphate (3b)], the 50% inhibitory concentration (IC50) on Acetylcholinesterase worked out at 31.4 µM; in assay [1], 19.3 µM.

Regarding `COP(=O)(OC)OC(c1ccccc1)C(C)CC#N` (stereo unspecified) [Dimethyl-3-cyano-2-methyl-1-phenylpropylphosphate (3h)], the IC50 against Acetylcholinesterase turned out to be 29.5 µM; in assay [1] it was 20.6 µM.
